Source: publication PMC7890253, “Signal Transduction Mechanisms for Glucagon-Induced Somatolactin Secretion and Gene Expression in Nile Tilapia (Oreochromis niloticus) Pituitary Cells” (Frontiers in Endocrinology, 2021)

Columns and labels:
tilapia NIL cells [1] = experiment: SL release in primary NIL cell culture (ELISA); type: cell-based, Nile tilapia (Oreochromis niloticus); conditions: for SL release, dose dependence: mean ± SEM (N = 3)
Protocol: (§1) To examine the direct effects of GCG on SL release and gene expression in the pituitary, tilapia NIL cells were prepared by the controlled trypsin/DNase II digestion method as described previously ([30]). After that, NIL cells were seeded in poly-D-lysine precoated 24-well plates at ~1.5 × 10^6 cells/mL/well and incubated with test substances for the duration as indicated. After drug treatment, SL release in conditioned medium was immediately determined by the enzyme-linked immunosorbent assay (ELISA) with a detectable range from 0.5 to 500 ng/mL for SL. The assay was optimized in our laboratory by utilizing a polyclonal antibody against tilapia SL ([31]) and a SL-biotin conjugate (GenScript, Nanjing, China). Meanwhile, the cells were rinsed with cold PBS before being lysed by TRIzol reagent (Life Technologies) to measure SL gene expression. After cDNA synthesis, qPCR assays were performed using the primers specific for tilapia SL (forward primer: 5’ […] 3’ and reverse primer: 5’ […] 3’). The same qPCR conditions were maintained as described above, and gene expression levels were analyzed using the 2^−ΔΔCT method. In these experiments, β-actin was used as an internal control for normalizing genes of interest. It has been reported that β-actin is used to normalize SL gene expression in tilapia ([14]), goldfish ([32]), and red drum ([33]).
(§2) For qPCR and ELISA assays, NIL cells were prepared from 30–40 individual fish in each experimental run. For cAMP and IP3 measurements, NIL cells were prepared from ~30 individual fish in each experimental run. For Ca^2+ signal measurements, NIL cells were prepared from 10–12 individual fish. For the Western blot analysis, NIL cells were prepared from ~30 individual fish in each experimental run. Three biological replicates were analyzed, and four technical repeats were performed per sample. All results are expressed as the mean ± SEM (N = 3) and analyzed with ANOVA followed by post-hoc Bonferroni’s test for multiple comparisons. A value of P < 0.05 was regarded as statistically significant. All analyses were performed with GraphPad Prism Software, Inc (San Diego, CA).

tilapia NIL cells [2] = experiment: SL gene expression in primary NIL cell culture (qPCR); type: cell-based, Nile tilapia (Oreochromis niloticus); conditions: for effect on basal SL gene expression: 10 µM test substance
Protocol: as §1, §2

rat hepatocytes [3] = conditions: ref [57]; cited from earlier work
rat hepatocytes [4] = conditions: ref Mine et al. ([59]); cited from earlier work
Excerpt: Although pituitary GCG-mediated molecular signaling pathways remain largely unknown, GCG action in fish hepatocytes is mediated by the AC/cAMP/PKA pathway ([52], [55]). These findings promote us to investigate similar signaling mechanisms involved in GCGb action in tilapia pituitary cells. […] In contrast, both basal and GCGb-induced SL release and gene expression ...

fish glucagon = conditions: ref [18]; cited from earlier work
Protocol: Male Nile tilapia (O. niloticus) with a bodyweight range of 45-55 g were purchased from local aquaria and maintained in aerated 300-liter aquaria at 28°C under 12 h dark/12 h light photoperiod. During tissue sampling, the fish were sacrificed by spinosectomy after anesthesia with 0.05% MS222 (Sigma, St Louis, MO) according to the procedures approved by the Animal Ethics Committee of Sichuan University. The tilapia and human GCGs and the des-His1-[Nle9-Ala11-Ala16] GCG antagonist were synthesized by GL Biochem (Shanghai, China).

tilapia GCGRa = experiment: CRE-luciferase reporter assay, HEK293 cells stably expressing tilapia GCGRa; type: cell-based, Nile tilapia (Oreochromis niloticus)
Protocol: (§3) The open reading frames (ORFs) of tilapia Gcgra and Gcgrb were subcloned in the pcDNA3.1 (+) expression vector (Invitrogen) using high-fidelity Taq DNA polymerase (TOYOBO, Japan) and then HEK293 cell lines with stable expression of pcDNA3.1-GCGRa, and pcDNA3.1-GCGRb, respectively, were established in the presence of 500 µg/mL […] (Invitrogen). The expression of Gcgra and Gcgrb transcripts in these stably transfected cell lines was confirmed by qPCR, and the colonies with the same levels of Gcgra and Gcgrb mRNA expression were selected for subsequent studies. After that, HEK293 cells were co-transfected with the cAMP response element (CRE)-luciferase reporter plasmid, and Renilla luciferase plasmid (pTK-RL) (Promega, Madison, WI), encoding the Renilla luciferase protein, as the internal control using Lipofectamine in Opti-MEM (Invitrogen). […] The luciferase activity of cellular lysates was determined using a Dual-Glo luciferase assay kit (Promega), and the signal was read using a microplate reader (Fluostar OPTIMA, BMGLabtech). The luciferase activities in each treatment group were expressed as relative fold increase compared with the control group.
(§4) Figure 3 Functional characterization of tilapia GCGRa and GCGRb expressed in HEK293 cells. […] All results are expressed as the mean ± SEM (N = 3).

tilapia GCGRb = experiment: CRE-luciferase reporter assay, HEK293 cells stably expressing tilapia GCGRb; type: cell-based, Nile tilapia (Oreochromis niloticus); conditions: HEK293, CRE-luciferase (cAMP), 24 h treatment, 37°C, Luc ratio to Renilla, N = 3
Protocol: as §3, §4

GCGRb = conditions: ref [42]; cited from earlier work
Excerpt: Identification of multiple types of Gcgrs raises a question of whether a given physiological response is mediated by either a specific receptor or multiple types of receptors. We examined the functional similarity and difference of the two tilapia GCGRs.

[5] = 10 µM test substance with GCGb 10 nM, 24 h
[6] = 5 µM test substance with GCGb 10 nM, 24 h
[7] = 1 µM test substance with GCGb 10 nM, 24 h
[8] = 5 µM test substance with GCGb 10 nM (duration not given)
[9] = 50 nM test substance with GCGb 10 nM (duration not given)

Molecule: CN(C)CCCn1cc(C2=C(c3c[nH]c4ccccc34)C(=O)NC2=O)c2ccccc21 [GF109203X]
- effect on GCGb-stimulated SL release (tilapia NIL cells [1]; 20 µM test substance with GCGb 10 nM, 24 h): neither compound was able to block GCGb stimulated SL release

Molecule: O=S(=O)(NCCNC/C=C/c1ccc(Br)cc1)c1cccc2cnccc12 [H89]
- effect on GCGb-stimulated SL release (tilapia NIL cells [1]; [5]): blocked
- effect on basal SL release (tilapia NIL cells [1]; 10 µM test substance, 24 h): blocked the basal levels
- effect on GCGb-stimulated SL mRNA expression (tilapia NIL cells [2]; [5]): blocked
- effect on basal SL gene expression (tilapia NIL cells [2]; 24 h): blocked the basal levels

Molecule: CN([C@@H](Cc1ccc(OS(=O)(=O)c2cccc3cnccc23)cc1)C(=O)N1CCN(c2ccccc2)CC1)S(=O)(=O)c1cccc2cnccc12 [KN62]
- effect on GCGb-stimulated SL release (tilapia NIL cells [1]; [6]): abolished
- effect on GCGb-stimulated SL mRNA expression (tilapia NIL cells [2]; [6]): abolished

Molecule: Cl.c1ccc(C2CCCC2NC2=NCCCCCCCCCCC2)cc1 (stereo not shown) [MDL12330A]
- effect on GCGb-stimulated SL release (tilapia NIL cells [1]; [5]): blocked
- effect on basal SL release (tilapia NIL cells [1]; 10 µM test substance, 24 h): blocked the basal levels
- effect on GCGb-stimulated SL mRNA expression (tilapia NIL cells [2]; [5]): blocked
- effect on basal SL gene expression (tilapia NIL cells [2]; 24 h): blocked the basal levels

Molecule: COc1ccc2c(c1)CC[C@@H]1[C@@H]2CC[C@]2(C)[C@@H](NCCCCCCN3C(=O)C=CC3=O)CC[C@@H]12 [U73122]
- effect on GCGb-stimulated SL release (tilapia NIL cells [1]; [5]): blocked the GCGb-stimulated SL release and mRNA expression
- effect on GCGb-stimulated SL mRNA expression (tilapia NIL cells [2]; [5]): blocked the GCGb-stimulated SL release and mRNA expression

Molecule: Clc1ccc(C(c2ccc(Cl)cc2)n2cc[n+](CC(OCc3ccc(Cl)cc3Cl)c3ccc(Cl)cc3Cl)c2)cc1 (stereo not shown) [calmidazolium]
- effect on GCGb-stimulated SL release (tilapia NIL cells [1]; [7]): abolished
- effect on GCGb-stimulated SL mRNA expression (tilapia NIL cells [2]; [7]): abolished

Molecule: COc1c(C[C@@H](C)OC(=O)Oc2ccc(O)cc2)c2c3c(C[C@@H](C)OC(=O)c4ccccc4)c(OC)c(=O)c4c(O)cc(OC)c(c5c(OC)cc(O)c(c1=O)c52)c43 [calphostin C]
- effect on GCGb-stimulated SL release (tilapia NIL cells [1]; 20 nM test substance with GCGb 10 nM, 24 h): neither compound was able to block GCGb stimulated SL release

Molecule: C=C[C@@]1(C)CC(=O)[C@]2(O)[C@@]3(C)[C@@H](O)CCC(C)(C)[C@@H]3[C@H](O)[C@H](OC(C)=O)[C@@]2(C)O1 [forskolin]
- SL release, dose dependence (tilapia NIL cells [1]; 0.1–100 nM, 24 h): dose-dependently stimulated SL release

Molecule: Cc1cc(C)c(S(=O)(=O)Nc2cccc(C(F)(F)F)c2)c(C)c1 [m-3M3FBS]
- SL release, dose dependence (tilapia NIL cells [1]; 0.01–10 µM): dose-dependently stimulated SL release

Molecule: COC(=O)C1=C(C)NC(C)=C(C(=O)OC)C1c1ccccc1[N+](=O)[O-] [nifedipine]
- effect on GCGb-stimulated SL release (tilapia NIL cells [1]; [8]): effective in blocking the stimulatory effect of GCGb on SL release and mRNA expression
- effect on GCGb-stimulated SL mRNA expression (tilapia NIL cells [2]; [8]): effective in blocking the stimulatory effect of GCGb on SL release and mRNA expression

Molecule: C/C=C(/C)C(=O)O[C@H]1C(C)=C2[C@H]([C@@H]1OC(=O)CCCCCCC)[C@@](C)(OC(C)=O)C[C@H](OC(=O)CCC)[C@@]1(O)[C@H]2OC(=O)[C@@]1(C)O [thapsigargin]
- effect on GCGb-stimulated SL release (tilapia NIL cells [1]; [9]): effective in blocking the stimulatory effect of GCGb on SL release and mRNA expression
- effect on GCGb-stimulated SL mRNA expression (tilapia NIL cells [2]; [9]): effective in blocking the stimulatory effect of GCGb on SL release and mRNA expression

Molecule: C1CCC[C@H]2CCCN3CC[C@@H](CCCCCC[C@@H]4CCCN5CC[C@@H](CC1)O[C@@H]45)O[C@@H]23 [xestospongin C]
- effect on GCGb-stimulated SL release (tilapia NIL cells [1]; [6]): suppressed
- effect on basal SL release (tilapia NIL cells [1]; 5 µM test substance, 24 h): suppressed
- effect on GCGb-stimulated SL mRNA expression (tilapia NIL cells [2]; [6]): suppressed
- effect on basal SL mRNA levels (tilapia NIL cells [2]; 5 µM test substance, 24 h): suppressed

Molecule: GCG: Glucagon, a 29 amino acid peptide hormone derived from proglucagon (cited work, species not stated)
- production of IP3 (rat hepatocytes [3]): induce the production of IP3
- Ca^2+ release (rat hepatocytes [4]): can mediate Ca^2+ release from both intracellular Ca^2+ store and extracellular Ca^2+ influx

Molecule: des-His1-[Nle9-Ala11-Ala16] GCG antagonist
- effect on GCGb-stimulated SL release (tilapia NIL cells [1]; [7]): stimulatory effect could be blocked
- block of the action of fish glucagon (fish glucagon): could block the action of fish glucagon

Molecule: human GCG: human glucagon, synthesized by GL Biochem
- potency at tilapia GCGRa relative to tilapia GCGa (fold less potent) (tilapia GCGRa; fold less potent than tilapia GCGa): 80 fold
- EC50 (tilapia GCGRa; tilapia GCGRa, HEK293, CRE-luciferase (cAMP), 24 h treatment, 37°C, Luc ratio to Renilla, N = 3): 240 nM
- EC50 (tilapia GCGRb): 6.37 nM

Molecule: mouse GCG: mouse glucagon (cited work)
- activation of zebrafish GCGRb (GCGRb): potently activated
